# From ChEMBL document CHEMBL4765326, “Anchoring BODIPY photosensitizers enable pan-microbial photoinactivation” (Eur J Med Chem, 2020)
# Calls of active or inactive are those of the source. The rule behind the calls is not given here.
# What was measured:
# [1] = Induction of singlet oxygen generation in DPBF solution assessed as singlet oxygen quantum yield irradiated with 80 mW/cm2 light by DPBF-based assay; assay type: functional
# [2] = Octanol-water partition coefficient, logP of compound incubated for 24 hrs under shaking condition; assay type: physicochemical
# [3] = test system: Staphylococcus aureus; assay: Photodynamic antibacterial activity against Staphylococcus aureus assessed as bacterial eradication preincubated for 20 mins in dark condition followed by 18 J/cm2 LED light irradiation and measured after 18 hrs by broth microdilution method; assay type: functional; conditions: light or radiation study, 18.33 h, time 1100 min
# [4] = test system: Escherichia coli; assay: Photodynamic antibacterial activity against Escherichia coli assessed as bacterial eradication preincubated for 20 mins in dark condition followed by 18 J/cm2 LED light irradiation and measured after 18 hrs by broth microdilution method; assay type: functional; conditions: light or radiation study, 18.33 h, time 1100 min
# [5] = test system: Candida albicans; assay: Photodynamic antifungal activity against Candida albicans assessed as fungal eradication preincubated for 20 mins in dark condition followed by 18 J/cm2 LED light irradiation and measured after 18 hrs by broth microdilution method; assay type: functional; conditions: light or radiation study, 18.33 h, time 1100 min
# [6] = test system: Staphylococcus aureus; assay: Photodynamic antibacterial activity against methicillin resistant Staphylococcus aureus assessed as bacterial eradication preincubated for 20 mins in dark condition followed by 18 J/cm2 LED light irradiation and measured after 18 hrs by broth microdilution method; assay type: functional; conditions: light or radiation study, 18.33 h, time 1100 min
# [7] = test system: Staphylococcus aureus; assay: Antibacterial activity against Staphylococcus aureus up to 80 uM by broth microdilution method; assay type: functional, organism-based; conditions: dose microM <=80
# [8] = test system: Escherichia coli; assay: Antibacterial activity against Escherichia coli up to 80 uM by broth microdilution method; assay type: functional, organism-based; conditions: dose microM <=80
# [9] = test system: Candida albicans; assay: Antifungal activity against Candida albicans up to 80 uM by broth microdilution method; assay type: functional, organism-based; conditions: dose microM <=80
# [10] = test system: Staphylococcus aureus; assay: Antibacterial activity against methicillin resistant Staphylococcus aureus up to 80 uM by broth microdilution method; assay type: functional, organism-based; conditions: dose microM <=80
# [11] = test system: Staphylococcus aureus; assay: Binding affinity to Staphylococcus aureus cell wall assessed as bound fraction at 25 uM measured after 3 to 10 mins; conditions: time 3-10 min
# [12] = test system: Escherichia coli; assay: Binding affinity to Escherichia coli cell wall assessed as bound fraction at 25 uM measured after 3 to 10 mins; conditions: time 3-10 min
# [13] = test system: Candida albicans; assay: Binding affinity to Candida albicans cell wall assessed as bound fraction at 25 uM measured after 3 to 10 mins; conditions: time 3-10 min
# [14] = test system: Staphylococcus aureus; assay: Binding affinity to Staphylococcus aureus cell wall at 50 uM preincubated with 12.5 to 50 mM Ca2+ for 30 mins followed by incubation with compound for 30 mins
# [15] = test system: Escherichia coli; assay: Binding affinity to Escherichia coli cell wall at 50 uM preincubated with 12.5 to 50 mM Ca2+ for 30 mins followed by incubation with compound for 30 mins
# [16] = test system: Candida albicans; assay: Binding affinity to Candida albicans cell wall at 50 uM preincubated with 12.5 to 50 mM Ca2+ for 30 mins followed by incubation with compound for 30 mins
# [17] = test system: Cell membrane; assay: Binding affinity to Staphylococcus aureus cell membrane assessed as reduction in zeta potential by zetasizer-based analysis; assay type: subcellular
# [18] = test system: Cell membrane; assay: Binding affinity to Escherichia coli cell membrane assessed as reduction in zeta potential by zetasizer-based analysis; assay type: subcellular
# [19] = Drug localization in peripheral edge of Escherichia coli at 10 uM incubated for 30 mins by fluorescent dye based confocal microscopic analysis; assay type: ADME; conditions: 0.5 h
# [20] = Drug uptake in human HaCaT cells at 5 uM measured after 10 to 30 mins by fluorescence based confocal laser scanning microscopic analysis; assay type: ADME, cell-based; conditions: time 10-30 min
Drug uptake [19],Drug uptake [20],Compound,Activity [1],logP at 24 h [2],MIC [3] [µM],MIC [4] [µM],MIC [5] [µM],MIC [6] [µM],Activity [7],Activity [8],Activity [9],Activity [10],Activity [11] [%],Activity [12] [%],Activity [13] [%],Activity [14],Activity [15],Activity [16],Activity [17],Activity [18]
–,–,CC[N+](C)(CC)CCCO[B-]1(OCCC[N+](C)(CC)CC)n2c(C)c(I)c(C)c2C=C2C(C)=C(I)C(C)=[N+]21,0.75,-0.93,20,40,40,20,inactive,inactive,inactive,inactive,–,–,–,–,–,–,–,–
–,–,CC[N+](C)(CC)CCO[B-]1(OCC[N+](C)(CC)CC)n2c(C)c(I)c(C)c2C=C2C(C)=C(I)C(C)=[N+]21,0.65,-1.36,30,40,40,40,inactive,inactive,inactive,inactive,–,–,–,–,–,–,–,–
–,–,CC1=C(I)C(C)=[N+]2C1=Cc1c(C)c(I)c(C)n1[B-]2(OCCC[N+](C)(C)C)OCCC[N+](C)(C)C,0.68,-1.01,30,40,40,20,inactive,inactive,inactive,inactive,51.8,38.9,53.6,inactive,inactive,inactive,Active,Active
Active,Active,CC1=CC(C)=[N+]2C1=Cc1c(C)cc(C)n1[B-]2(C#CC[N+](C)(C)C)C#CC[N+](C)(C)C.[I-].[I-],–,-1.97,–,–,–,–,–,–,–,–,–,–,–,–,–,–,–,–
–,–,CC1=C(I)C(C)=[N+]2C1=Cc1c(C)c(I)c(C)n1[B-]2(C#Cc1ccc[n+](C)c1)C#Cc1ccc[n+](C)c1,0.65,-0.27,1.25,1.25,0.625,0.625,inactive,inactive,inactive,inactive,–,–,–,–,–,–,–,–
–,–,CC1=C(I)C(C)=[N+]2C1=Cc1c(C)c(I)c(C)n1[B-]2(C#Cc1cc[n+](C)cc1)C#Cc1cc[n+](C)cc1,0.54,-0.63,1.25,1.25,0.625,0.625,inactive,inactive,inactive,inactive,–,–,–,–,–,–,–,–
–,–,CC1=C(I)C(C)=[N+]2C1=Cc1c(C)c(I)c(C)n1[B-]2(OCCCCc1cc[n+](C)cc1)OCCCCc1cc[n+](C)cc1,0.77,-0.74,1.25,0.625,5,1.25,inactive,inactive,inactive,inactive,–,–,–,–,–,–,–,–
